From patent US4571393A, “3-Phenoxy-1-azetidinecarboxamides” (A. H. Robins Company, Incorporated, priority 1984, dated 1986)

Tests used:
[1] = plasma half-life of elimination, two-way crossover oral/intravenous study in dogs; format: in vivo, mongrel dogs; conditions: 10 mg/kg, average of oral and intravenous testing, dog plasma, HPLC; read-out: mean apparent terminal half-life of elimination (converted)
Experimental: Tests were conducted in order to compare the apparent half-life of elimination in the animal bloodstream of compounds of the present invention with that of the parent prior art compounds of which they are the metabolites as follows:
A two-way crossover study was conducted on male and female adult mongrel dogs. Each dog, after overnight fasting, received a single oral or intravenous dose of 10 mg/kg of test drug in 75% PEG in water and in such concentration that each dog received 1 ml of solution/kg of body weight. Oral doses were administered by using a glass syringe attached to a Levin® tube (size 18 French) which served as the stomach tube. […] Plasma levels of the test drug in the samples were determined by the HPLC method described by Osman, M. A.; Pinchbeck, F. M.; Cheng, L. K.; and Wright, G. J. described in the Journal of Chromatography, 336 (1981). […] The test drug being measured and the internal standard were then extracted from the plasma into a mixture of hexane, methylene chloride and butanol. […] The final solution was chromatographed on a Waters® column C18 reverse-phase system, the samples being analyzed in sequential order starting with the 0-hr sample (control) and proceeding to the 24 hr sample for the same animal. Duplicate assays were carried out for each sample and the mean value was recorded. […]

[2] = anticonvulsant activity against Metrazole (pentylenetetrazol) s.c. in mice, method of Swinyard; format: in vivo; conditions: for Number Protected / Number Tested: 1/2 hr before 80 mg/kg s.c. Metrazole; for ED50: Mus musculus, ip, 80 mg/kg s.c. Metrazole, probit analysis, read-out: ED50 and (Confidence Limits)
Excerpt: The procedure for testing the compounds for their anticonvulsant activity and comparison with prior art compounds is based on evaluation techniques published by Swinyard, E. A. in EPILEPSIA 10: 107-19 (1969) and in J. PHARMAC. EXPTL. THERAP. 106: 319-30 (1952) as explained in greater detail below.
A comparison was made of anti-convulsant activity of the compound of Example 1 and the prior art methyl analog (U.S. Pat. No. 4,226,861, Example 4) using metrazole as the convulsant by the method of Swinyard (See above citation).
Ninety-six adult female mice weighing 24-32 g were randomly assigned to dosage groups according to the method of Steel, R. G. D. and Torrie, J. H. (1960) in "Principles and Procedures of Statistics," McGraw-Hill Book Company, Inc., pp 99-100, pp 428-31. Each mouse was identified with a color code on its tail. The test compounds were administered as suspensions in 10 ml/kg mouse body weight of 0.5% aqueous methyl cellulose within 15 minutes of preparation of the suspension. Metrazole (pentylenetetrazol) was prepared as a solution in physiological saline. The mice were not fasted prior to the test. Eight mice were tested at each dosage level.
Each mouse received one dose of the test drug in the 0.5% aqueous methylcellulose or the control article (0.5% aqueous methylcellulose alone) intraperitoneally. Metrazole (80 mg/kg S.C.) was then given in a loose fold of skin on the back of the neck; i.e., 1/2 hr after the test compound or control article was given. Injections were given with a 1-ml glass tuberculin syringe with appropriate size hypodermic needle (27 gauge for solutions; 23 gauge for suspensions). All injections were given in a volume of 10 ml/kg mouse body weight. […] Anticonvulsant data were tabulated as the percent protection, i.e., [formula] The ED50 and (95% confidence limits) and potency ratio were ascertained by the computer-based probit analysis ascribed to Finney, D. J. (1964) Statistical Method in Biological Assay., 2nd Ed., New York. Hefner Publishing Co. Results are in Table A. Statistical analysis of the data indicated no significant difference in anti-convulsant potency between the two compounds.
(a) All mice were first injected with 10 ml/kg of 0.5% aqueous
methylcellulose intraperitoneally in which test compound was suspended if
(b) 80 mg/kg Metrazole in 10 ml saline of mouse body weight was
administered to all mice subcutaneously in a loose fold of skin on the
back of the neck onehalf hr. after administration of test compound.

Row | half-life [1] | Compound | Number Protected / Number Tested ([2]; 45 mg/kg i.p.) | Number Protected / Number Tested ([2]; 67 mg/kg i.p.) | Number Protected / Number Tested ([2]; 100 mg/kg i.p.) | Number Protected / Number Tested ([2]; 150 mg/kg i.p.) | Number Protected / Number Tested ([2]; 225 mg/kg i.p.) | ED50 [2] | Potency and 95% Confidence Limits ([2]; potency ratio, prior art compound 1.00, i.p.)
1 | 144 ± 24 min | NC(=O)N1CC(Oc2cccc(C(F)(F)F)c2)C1 [Example 1, 3-[3-(Trifluoromethyl)phenoxy]-1-azetidinecarboxamide] | 1/8 | 2/8 | 4/8 | 5/8 | 8/8 | 99.2 mg/kg | 0.92
2 | 78 ± 24 min | CNC(=O)N1CC(Oc2cccc(C(F)(F)F)c2)C1 [Example 4 of U.S. Pat. No. 4,226,861, N-methyl-3-(3-trifluoromethyl) phenoxy-1-azetidinecarboxamide, reference compound] | 1/8 | 2/8 | 3/8 | 8/8 | – | 90.9 mg/kg | –
